Results: patent US20120324604A1, “PESTICIDAL MIXTURES CONTAINING ISOXAZOLINE DERIVATIVES AND A FUNGICIDE” (priority 2010, published 2012)

Assays:
Format in all cases: cell-based
Pythium ultimum = Pythium ultimum (Damping Off) growth inhibition, microtiter plate, photometric
Protocol: Pythium ultimum (Damping Off):
Mycelial fragments of the fungus, prepared from a fresh liquid culture, were directly mixed into nutrient broth (potato dextrose broth). After placing a (DMSO) solution of the test compounds into a microtiter plate (96-well format) the nutrient broth containing the fungal spores was added.

Rhizoctonia solani = Rhizoctonia solani (Foot Rot, Damping-Off) growth inhibition, microtiter plate, photometric; conditions: applied alone
Protocol: Rhizoctonia solani (Foot Rot, Damping-Off):
Mycelial fragments of the fungus from cryogenic storage were directly mixed into nutrient broth (potato dextrose broth). After placing a (DMSO) solution of the test compounds into a microtiter plate (96-well format) the nutrient broth containing the fungal spores was added.

Botrvtis cinerea = Botrvtis cinerea (Gray Mould) growth inhibition, microtiter plate, photometric; conditions: alone
Protocol: Botrvtis cinerea (Gray Mould):
(§1) Conidia of the fungus from cryogenic storage were directly mixed into nutrient broth (potato dextrose broth). After placing a (DMSO) solution of the test compounds into a microtiter plate (96-well format) the nutrient broth containing the fungal spores was added.

[1] = test system: Glomerella lagenarium (syn. Colletotrichum lagenarium); assay: Glomerella lagenarium (Anthracnose of Cucurbits) growth inhibition, microtiter plate, photometric; conditions: alone
Protocol: Glomerella lagenarium (syn. Colletotrichum lagenarium), Anthracnose of Cucurbits:
as §1

Septoria tritici = Septoria tritici (Leaf Blotch) growth inhibition, microtiter plate, photometric; conditions: alone
Protocol: Septoria tritici (Leaf Blotch):
as §1

[2] = test system: Mycosphaerella arachidis (syn. Cercospora arachidicola); assay: Mycosphaerella arachidis (Brown Leaf Spot of Groundnut) growth inhibition, microtiter plate, photometric; conditions: alone
Protocol: Mycosphaerella arachidis (syn. Cercospora arachidicola), Brown Leaf Spot of Groundnut (Peanut):
as §1

Fusarium culmorum = Fusarium culmorum (Root Rot) growth inhibition, microtiter plate, photometric; conditions: single compound, 48 hrs, 24° C.
Protocol: Fusarium culmorum (Root Rot):
as §1

Measured: AVERAGE DEAD IN %

Cc1cc(C2=NOC(c3cc(Cl)cc(Cl)c3)(C(F)(F)F)C2)ccc1C(=O)NC1CS(=O)(=O)C1 (racemic) [A8]
0%: Pythium ultimum; single compound at 0.078125 ppm AI | Pythium ultimum; single compound at 0.15625 ppm AI | Pythium ultimum; single compound at 0.3125 ppm AI | Pythium ultimum; single compound at 0.625 ppm AI | Pythium ultimum; single compound at 1.25 ppm AI | Pythium ultimum; single compound at 2.5 ppm AI | Pythium ultimum; single compound at 5 ppm AI | Pythium ultimum; single compound at 10 ppm AI | Pythium ultimum; single compound at 20 ppm AI | Rhizoctonia solani; 0.0390625 ppm AI | Rhizoctonia solani; 0.078125 ppm AI | Rhizoctonia solani; 0.15625 ppm AI | Rhizoctonia solani; 0.3125 ppm AI | Rhizoctonia solani; 0.625 ppm AI | Rhizoctonia solani; 1.25 ppm AI | Rhizoctonia solani; 2.5 ppm AI | Rhizoctonia solani; 5 ppm AI | Rhizoctonia solani; 10 ppm AI | Rhizoctonia solani; 20 ppm AI | Botrvtis cinerea; 0.078125 ppm AI | Botrvtis cinerea; 0.15625 ppm AI | Botrvtis cinerea; 0.3125 ppm AI | Botrvtis cinerea; 0.625 ppm AI | Botrvtis cinerea; 1.25 ppm AI | Botrvtis cinerea; 2.5 ppm AI | Botrvtis cinerea; 5 ppm AI | Botrvtis cinerea; 10 ppm AI | Botrvtis cinerea; 20 ppm AI | [1]; 0.078125 ppm AI | [1]; 0.15625 ppm AI | [1]; 0.3125 ppm AI | [1]; 0.625 ppm AI | [1]; 1.25 ppm AI | [1]; 2.5 ppm AI | [1]; 5 ppm AI | [1]; 10 ppm AI | [1]; 20 ppm AI | Septoria tritici; 0.0390625 ppm AI | Septoria tritici; 0.078125 ppm AI | Septoria tritici; 0.15625 ppm AI | Septoria tritici; 0.3125 ppm AI | Septoria tritici; 0.625 ppm AI | Septoria tritici; 1.25 ppm AI | Septoria tritici; 2.5 ppm AI | Septoria tritici; 5 ppm AI | Septoria tritici; 10 ppm AI | Septoria tritici; 20 ppm AI | [2]; 0.0390625 PPM AI | [2]; 0.078125 PPM AI | [2]; 0.15625 PPM AI | [2]; 0.3125 PPM AI | [2]; 0.625 PPM AI | [2]; 1.25 PPM AI | [2]; 2.5 PPM AI | [2]; 5 PPM AI | [2]; 10 PPM AI | [2]; 20 PPM AI | Fusarium culmorum; 2.5 PPM AI | Fusarium culmorum; 5 PPM AI | Fusarium culmorum; 10 PPM AI | Fusarium culmorum; 20 PPM AI
